Experimental data: US4962203A, “2-substituted quinolines useful as leukotriene antagonists” (Merck Frost Canada, Inc., priority 1989, dated 1990)

Legend:
LTD4 binding = target: T1, LTD4 binding (Cavia porcellus, UniProt Q2NNR5); assay: LTD4 binding assay; details: for IC50: 50% LTD4 bound, unit inferred, read-out: LTD4 binding assay, drug conc. (IC50 values for the numbered examples); for LTD4 binding activity, times greater than the reference compound: relative to the reference compound of Table I
T1 construct: from tissue
T1 sequence (Q2NNR5 1-340): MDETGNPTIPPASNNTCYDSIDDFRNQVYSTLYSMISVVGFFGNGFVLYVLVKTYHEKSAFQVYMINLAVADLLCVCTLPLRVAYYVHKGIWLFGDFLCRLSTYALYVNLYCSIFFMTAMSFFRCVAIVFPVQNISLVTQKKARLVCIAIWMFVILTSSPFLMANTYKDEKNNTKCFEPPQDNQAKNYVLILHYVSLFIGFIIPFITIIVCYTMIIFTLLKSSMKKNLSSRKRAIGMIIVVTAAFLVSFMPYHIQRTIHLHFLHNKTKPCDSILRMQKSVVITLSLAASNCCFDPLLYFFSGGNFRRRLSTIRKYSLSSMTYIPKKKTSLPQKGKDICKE
Protocol: The results for LTD4 binding were determined by the method of S. S. Pong and R. N. DeHaven, Proc. Nat. Acad. Sci. U.S.A., 80, 7415-7419 (1983).
The drug concentration in the LTD4 binding assay for the numbered examples are the IC50 values. The LTD4 binding activity of these ranges from at least 14 (Ex. 85) to at least 214 (Ex. 71) times greater than the reference compound. The actual differences are even greater since an IC50 was not obtained for the reference compound.

[1] = system: guinea pig ileum (LTD4 induced contractions); assay: Guinea-pig ileum assay: inhibition of LTD4 induced contractions; set-up: species or system male Hartley strain guinea pigs; details: for inhibition at 0.001 µg/mL / inhibition at 0.01 µg/mL / inhibition at 0.1 µg/mL / inhibition at 1 µg/mL / inhibition at 10 µg/mL: Cavia porcellus, LTD4 0.3 ng/mL, read-out: % inhibition of LTD4 induced contractions, G.P. ileum assay; for inhibition at 0.001 µg/mL: drug conc. 0.001 μg/mL; for inhibition at 0.01 µg/mL: drug conc. 0.01 μg/mL; for inhibition at 0.1 µg/mL: drug conc. 0.1 μg/mL; for inhibition at 1 µg/mL: drug conc. 1 μg/mL; for inhibition at 10 µg/mL: drug conc. 10 μg/mL; for ability to inhibit LTD4 contractions of the guinea pig ileum, times greater than the reference compound: relative to the reference compound of Table I
Protocol: Guinea-Pig Ileum Preparation for Evaluation of Antagonists of Leukotriene D4 and Other Mediators
Tissue--Sections of ileum were taken from male Hartley strain guinea pigs (Charles River, U.S.A.) 300 to 500 g which were sacrificed by a blow to the head and exsanguinated. Terminal ileum was removed, cleaned with warm Tyrode's solution and then divided into segments of approximately […]. The segments of ileum were then mounted under 1 g tension in a 20 mL organ bath containing 10 mL of Tyrode's solution with the following composition (mM): NaCl, 137; KCl, 2.7; MgSO4, 7H2 O, 0.8; CaCl2, 1.8; NaH2 PO4, 0.42; NaHCO3, 11.9; Dextrose, 5.6. The bathing solution was continuously aerated with 95% O2 and 5% CO2 and bath temperature was maintained at 37° C. The beta adrenoceptor blocker, timolol (0.5 μg/mL) and the antimuscarinic agent atropine (1.0 μM) were present in the Tyrodeμs solution. Isometric tension changes were recorded using Grass FTO3 force displacement transducers (Grass Instrument G., Quincy, Mass.) connected to a Beckman Type R Dynograph. In order to wash the tissue, the bath solution was automatically aspirated and replaced with a constant volume (10 mL) of fresh solution by means of timer controlled solenoid valves.
After the tissues were stable a standard dose of LTD4 (0.3 ng/mL) was repeatedly added to the bath every 4-5 minutes (min contact, 30 sec wash, 3 min rest) until a consistent response was obtained (minimum of 4 responses). Following each addition of LTD4 the tissue was washed with Tyrode's solution until baseline tension was re-established. After consistent responses were obtained the tissues were used to screen compounds.
Usually, 10 μL of a 10 mg/mL solution of the compound to be tested was added to the bath 30 secs prior to the addition of LTD4. The compound and LTD4 remained in contact with the tissue until the maximum tension was developed (1 min) after which the tissue was washed repeatedly until the baseline was re-established. Percent inhibition relative to the immediately preceding control response was calculated for each dose of test compound. […] Provided the response was inhibited by less than 20%, the tissue was used immediately to evaluate another compound; when the response was inhibited by greater than 20%, cycles of LTD4 alone were added until a consistent response was re-established.

Row | % LTD4 bound, LTD4 binding assay (LTD4 binding; at the drug conc. (IC50)) [%] | IC50 (LTD4 binding) [nM] | LTD4 binding activity, times greater than the reference compound (LTD4 binding) | % LTD4 bound, LTD4 binding assay (LTD4 binding; reference compound, drug conc. 3 × 10^-6 (unit not given)) [%] | Compound | inhibition at 0.001 µg/mL [1] [%] | inhibition at 0.01 µg/mL [1] [%] | inhibition at 0.1 µg/mL [1] [%] | inhibition at 1 µg/mL [1] [%] | inhibition at 10 µg/mL [1] [%] | ability to inhibit LTD4 contractions of the guinea pig ileum, times greater than the reference compound [1]
1 | 50 | – | – | – | CC(Oc1cccc(/C=C/c2ccc3ccc(Cl)cc3n2)c1)C(=O)O (stereo not drawn) | 38 | 94 | 95 | 97 | 94 | –
2 | 50 | 96 | – | – | CC(Oc1cccc(C#Cc2ccc3ccc(Br)cc3n2)c1)C(=O)O (stereo not drawn) | 50 | 91 | 94 | 98 | 97 | –
3 | 50 | – | – | – | CC(Oc1cccc(C2CC2c2ccc3ccc(Cl)cc3n2)c1)c1nn[nH]n1 (stereo not drawn) | – | 37 | 87 | 96 | 94 | –
4 | 50 | 14 | at least 214 times | – | CC(Oc1cccc(/C=C/c2ccc3ccc(Cl)cc3n2)c1)c1nn[nH]n1 (racemic) [Example 71, 5-(1-(3-(2-(7-chloroquinolin-2-yl)ethenyl)-phenoxy)ethyl)tetrazole] | 67 | 92 | 100 | 98 | 97 | over 1000 times
5 | 50 | 220 | at least 14 times | – | CC(Oc1cccc(OCc2ccc3ccc(Br)cc3n2)c1)C(=O)O (stereo not drawn) [Example 85, 2-(3-(7-bromoquinolin-2-ylmethoxy)phenoxy)propanoic acid] | 0 | 10 | 57 | 93 | 100 | about 20 times
6 | – | – | – | 76 | CC(Oc1cccc(Sc2ccc3ccc(Cl)cc3n2)c1)C(=O)O (stereo not drawn) [reference compound] | – | – | – | 27 | 89 | –
